The values below come from patent publication EP4722205A1, “HETEROCYCLIC COMPOUND AND NOXIOUS ARTHROPOD-CONTROLLING COMPOSITION CONTAINING SAME” (Sumitomo Chemical Company, Limited, priority 2023, dated 2024).

Holding throughout (assay type): in vivo
The test system of experiment [1] is cotton aphids (Aphis gossypii). Description: Test Method 1: foliar spray on cucumber seedling infested with cotton aphids (Formulation example 1). The note with it: 120 h, spray 10 mL/seedling, examined after 5 days, 25°C, read-out: controlling value.
The test system of experiment [2] is cotton worm (Spodoptera litura). Nature of the experiment: Test Method 3: sprayed cabbage leaves fed to second instar cotton worm. The settings on record: 120 h, second instar larvae, after 5 days, 25°C, read-out: mortality of insects. On the procedure:
(§1) The following tests in the test examples below were conducted at 25°C.
Cabbage (Brassicae oleracea) seedling (on the developmental stage of the second to third true leaf) is planted in a cup, and the diluted solutions are sprayed into the seedling at a ratio of 20 mL/seedling. Thereafter, the stem and leaf thereof are cut out and then is installed into a cup that is covered with filter paper on the bed of the cup. Five (5) cotton worm (Spodoptera litura) at the second instar larval stage are released into the cup. After 5 days, the number of the surviving insects is counted, and the mortality of insects is calculated by the following equation. [formula]

Experiment [3] deals with diamondback moth (Plutella xylostella). Nature of the experiment: Test Method 4: sprayed cabbage leaves fed to second instar diamondback moth. The settings on record: 120 h, second instar larvae, after 5 days, 25°C, read-out: mortality of insects. On the procedure: Next, an efficacy of the present compound on controlling harmful arthropods is shown by Test examples. The following tests in the test examples below were conducted at 25°C.
Test compounds are made to a formulation according to a similar method to that described in the Formulation example 1, and thereto is added water containing 0.03 v/v% of Shindain (registered trademark) to prepare a diluted solution containing a prescribed concentration of the test compound.
Cabbage (Brassicae oleracea) seedling (on the developmental stage of the second to third true leaf) is planted in a cup, and the diluted solutions are sprayed into the seedling at a ratio of 20 mL/seedling. Thereafter, the stem and leaf thereof are cut out and then is installed into a cup that is covered with filter paper on the bed of the cup. Five (5) diamondback moth (Plutella xylostella) at the second instar larval stage are released into the cup. After 5 days, the number of the surviving insects is counted, and the mortality of insects is calculated by the following equation. [formula]

Experiment [4] concerns cotton worm (Spodoptera litura). Description: Test Method 9: sprayed cabbage seedling, third instar cotton worm (Formulation example 5). The settings on record: 144 h, third instar larvae, after 6 days, 25°C, read-out: controlling value. How it is done: as §1
Cabbage (Brassicae oleracea) seedling (on the developmental stage of the third to fourth true leaf) is planted in a cup, and the diluted solutions are sprayed into the seedling at a ratio of 20 mL/seedling. Thereafter, ten (10) cotton worm (Spodoptera litura) at the third instar larval stage are released onto the seedling. After 6 days, the number of the surviving insects is counted, and the mortality of insects is calculated by the following equation. [formula]

Experiment [5] deals with diamondback moth (Plutella xylostella). Nature of the experiment: Test Method 10: sprayed cabbage seedling, third instar diamondback moth (Formulation example 5). The note with it: 144 h, third instar larvae, after 6 days, 25°C, read-out: controlling value. How it is done:
as §1
Cabbage (Brassicae oleracea) seedling (on the developmental stage of the third to fourth true leaf) is planted in a cup, and the diluted solutions are sprayed into the seedling at a ratio of 20 mL/seedling. Thereafter, ten (10) diamondback moth (Plutella xylostella) at the third instar larval stage are released onto the seedling. After 6 days, the number of the surviving insects is counted, and the mortality of insects is calculated by the following equation. [formula]

Experiment [6] deals with cotton aphids (Aphis gossypii). Description: Test Method 11: foliar spray on cucumber seedling infested with cotton aphids (Formulation example 5). The settings on record: 120 h, spray 10 mL/seedling, examined after 5 days, 25°C, read-out: controlling value.
The subject of experiment [7] is common house mosquitos (Culex pipiens pallens). Nature of the experiment: Test Method 12: mosquito larvae released into diluted solution. The note with it: 24 h, last instar larvae, after 1 day, 25°C, read-out: controlling value. How it is done: as §1
Into the diluted solution, 30 common house mosquitos (Culex pipiens pallens) at the last instar larval stage are released, and after 1 day, the state of the house mosquito larvae is examined, and the mortality of insects is calculated by the following equation. [formula]

`CCS(=O)(=O)c1c(C(=O)N(C)c2nc3cccc(F)c3s2)nc2ccc(I)cn12` [compound 22]: the mortality at 500 ppm in experiment [1] was ≥ 90%; in experiment [2], ≥ 80%; in experiment [3], ≥ 80%. Moreover, the mortality at 200 ppm is ≥ 80% in experiment [4], ≥ 80% in experiment [5] and ≥ 90% in experiment [6]. The mortality at 50 ppm is ≥ 80% in experiment [5] and ≥ 90% in experiment [6]. Further, the mortality at 3.5 ppm in experiment [7] is ≥ 90%.
With `CCS(=O)(=O)c1c(C(=O)N(C)c2nc3ccc(F)cc3s2)nc2ccc(I)cn12` [compound 23], the mortality at 500 ppm in experiment [1] is ≥ 90%; in experiment [2] it was ≥ 80%; in experiment [3], ≥ 80%. Also, the values for the mortality at 50 ppm in experiment [4], in experiment [5] and in experiment [6] were ≥ 80%, ≥ 80% and ≥ 90%, respectively. Besides, the mortality at 200 ppm in experiment [4] is ≥ 80%; in experiment [6], ≥ 90%. The mortality at 3.5 ppm in experiment [7] is ≥ 90%.
As to `CCS(=O)(=O)c1c(C(=O)N(C)c2nc3cc(Cl)ccc3s2)nc2ccc(I)cn12` [compound 29], the mortality at 500 ppm is ≥ 90% in experiment [1], ≥ 80% in experiment [2] and ≥ 80% in experiment [3]. Besides, the mortality at 50 ppm in experiment [4] and in experiment [5] was ≥ 80% each time. Moreover, the figures for the mortality at 200 ppm in experiment [4], in experiment [5] and in experiment [6] were ≥ 80%, ≥ 80% and ≥ 90%, respectively. Moreover, the mortality at 3.5 ppm in experiment [7] is ≥ 90%.
In the case of `CCS(=O)(=O)c1c(C(=O)N(C)c2nc3ccccc3s2)nc2ccc(I)cn12` [compound 31], the mortality at 500 ppm in experiment [1] is ≥ 90%; in experiment [2], ≥ 80%; in experiment [3], ≥ 80%. In addition, the mortality at 50 ppm in experiment [4] was ≥ 80%; in experiment [5] it was ≥ 80%; in experiment [6] it was ≥ 90%. Besides, the mortality at 200 ppm in experiment [4] is ≥ 80%; in experiment [5], ≥ 80%; in experiment [6], ≥ 90%. Also, in experiment [7], the mortality at 3.5 ppm was ≥ 90%.
With `CCS(=O)(=O)c1c(C(=O)N(C)c2nc3c(F)cc(F)cc3s2)nc2ccc(I)cn12` [compound 35], the results for the mortality at 500 ppm in experiment [1], in experiment [2] and in experiment [3] were ≥ 90%, ≥ 80% and ≥ 80%, respectively. Further, the mortality at 50 ppm in experiment [4] and in experiment [5] was ≥ 80% in each case. The mortality at 200 ppm in experiment [4] and in experiment [5] was ≥ 80% in each case. In addition, in experiment [7], the mortality at 3.5 ppm was ≥ 90%.
For the molecule `CCS(=O)(=O)c1c(C(=O)N(C)c2nc3ccc(F)cc3o2)nc2ccc(I)cn12` [compound 40], the mortality at 500 ppm in experiment [1] is ≥ 90%; in experiment [3] it was ≥ 80%. For the same molecule, the mortality at 200 ppm in experiment [6] was ≥ 90%. In addition, in experiment [7], the mortality at 3.5 ppm was ≥ 90%.
As to `CCS(=O)(=O)c1c(C(=O)N(C)c2nc3cc(Cl)ccc3o2)nc2ccc(I)cn12` [compound 41], the mortality at 500 ppm in experiment [1] was ≥ 90%; in experiment [3], ≥ 80%. The mortality at 50 ppm in experiment [5] was ≥ 80%; in experiment [6] it was ≥ 90%. Further, the mortality at 200 ppm in experiment [5] was ≥ 80%; in experiment [6], ≥ 90%. The mortality at 3.5 ppm in experiment [7] was ≥ 90%.
For the molecule `CCS(=O)(=O)c1c(C(=O)N(C)c2nc3cc(F)c(F)cc3o2)nc2ccc(I)cn12` [compound 42], the mortality at 500 ppm in experiment [1] is ≥ 90%; in experiment [2], ≥ 80%. In addition, in experiment [7], the mortality at 3.5 ppm is ≥ 90%.
On to `CCS(=O)(=O)c1cccnc1C(=O)N(C)c1nc2cc(C(F)(F)F)ccc2n1C` [compound 56], for which the mortality at 500 ppm is ≥ 90% in experiment [1] and ≥ 80% in experiment [3]. The mortality at 3.5 ppm in experiment [7] was ≥ 90%.
In the case of `CCSc1c(C(=O)N(C)c2nc3cc(F)ccc3n2C)nc2ccc(I)cn12` [compound 70], the mortality at 500 ppm in experiment [1] is ≥ 90%. In experiment [6], the mortality at 50 ppm was ≥ 90% and the mortality at 200 ppm is ≥ 90%. The mortality at 3.5 ppm in experiment [7] was ≥ 90%.
With `CCS(=O)(=O)c1c(C(=O)N(C)c2nc3cc(F)ccc3n2C)nc2ccc(I)cn12` [compound 79], the mortality at 500 ppm in experiment [1] was ≥ 90%; in experiment [2] it was ≥ 80%; in experiment [3], ≥ 80%. Besides, the mortality at 200 ppm in experiment [4] was ≥ 80%; in experiment [5], ≥ 80%; in experiment [6], ≥ 90%. For the same molecule, the mortality at 50 ppm in experiment [6] was ≥ 90%.
For `CCS(=O)(=O)c1c(C(=O)N(C)c2nc3cc(F)c(F)cc3s2)nc2ccc(C3CC3)cn12` [compound 102], the figures for the mortality at 500 ppm in experiment [1], in experiment [2] and in experiment [3] were ≥ 90%, ≥ 80% and ≥ 80%, respectively. The figures for the mortality at 50 ppm in experiment [4], in experiment [5] and in experiment [6] were ≥ 80%, ≥ 80% and ≥ 90%, respectively. Moreover, the mortality at 200 ppm in experiment [4] is ≥ 80%; in experiment [5] it was ≥ 80%; in experiment [6], ≥ 90%.
As for `CCS(=O)(=O)c1cc(-c2ccc(F)cn2)cnc1C(=O)N(C)c1nc2cc(F)c(F)cc2s1` [compound 110], the mortality at 500 ppm in experiment [2] and in experiment [3] was ≥ 80% throughout. Moreover, the mortality at 50 ppm in experiment [4] and in experiment [5] was ≥ 80% each time. Also, the mortality at 200 ppm in experiment [4] and in experiment [5] was ≥ 80% each time. Also, the mortality at 3.5 ppm in experiment [7] was ≥ 90%.
For the molecule `CCS(=O)(=O)c1cc(OC(C)(C)C)cnc1C(=O)N(C)c1nc2cc(F)c(F)cc2s1` [compound 128], the values for the mortality at 500 ppm in experiment [1], in experiment [2] and in experiment [3] were ≥ 90%, ≥ 80% and ≥ 80%, respectively. Moreover, the mortality at 50 ppm in experiment [4] and in experiment [5] was ≥ 80% each time. Also, the mortality at 200 ppm in experiment [4] was ≥ 80%; in experiment [5], ≥ 80%; in experiment [6] it was ≥ 90%.
`CCS(=O)(=O)c1ccc(NC(=O)OC(C)(C)C)nc1C(=O)N(C)c1nc2cc(F)c(F)cc2s1` [compound 129]: the mortality at 500 ppm in experiment [2] and in experiment [3] was ≥ 80% each time. For the same molecule, the mortality at 200 ppm in experiment [4] and in experiment [5] was ≥ 80% in each case. In experiment [7], the mortality at 3.5 ppm is ≥ 90%.
For the molecule `CCS(=O)(=O)c1ccc(-n2cncn2)nc1C(=O)N(C)c1nc2cc(F)c(F)cc2s1` [compound 131], the mortality at 500 ppm in experiment [2] and in experiment [3] was ≥ 80% in each case. Also, the mortality at 200 ppm in experiment [4] and in experiment [5] was ≥ 80% throughout. For the same molecule, the mortality at 50 ppm in experiment [5] was ≥ 80%. The mortality at 3.5 ppm in experiment [7] was ≥ 90%.
In the case of `CCS(=O)(=O)c1ccc(N(C)C)nc1C(=O)N(C)c1nc2cc(F)c(F)cc2s1` [compound 135], the mortality at 500 ppm in experiment [2] and in experiment [3] was ≥ 80% throughout. Moreover, the mortality at 50 ppm in experiment [5] is ≥ 80%; in experiment [6], ≥ 90%. Besides, the results for the mortality at 200 ppm in experiment [5] and in experiment [6] were ≥ 80% and ≥ 90%, respectively. Besides, the mortality at 3.5 ppm in experiment [7] was ≥ 90%.
Consider `CCS(=O)(=O)c1ccc(NCCCN(C)C)nc1C(=O)N(C)c1nc2cc(F)c(F)cc2s1` [compound 136], for which the mortality at 500 ppm in experiment [3] is ≥ 80%. For the same molecule, the mortality at 200 ppm in experiment [5] is ≥ 80%. Also, the mortality at 3.5 ppm in experiment [7] is ≥ 90%.
Consider `CCS(=O)(=O)c1c(C(=O)N(C)c2nc3cc(F)c(F)cc3s2)nn(C)c1C1CC1` [compound 144], for which the mortality at 500 ppm in experiment [1] was ≥ 90%; in experiment [2], ≥ 80%; in experiment [3] it was ≥ 80%. In addition, the mortality at 50 ppm in experiment [5] was ≥ 80%. Moreover, the mortality at 200 ppm in experiment [5] was ≥ 80%; in experiment [6], ≥ 90%. For the same molecule, the mortality at 3.5 ppm in experiment [7] was ≥ 90%.
